The values that follow come from ChEMBL document CHEMBL1153562, “Are all the DNA gyrase mutations found in Mycobacterium leprae clinical strains involved in resistance to fluoroquinolones?” (Antimicrob Agents Chemother, 2008).

In brackets after ≈: the same amount, converted by molar mass. Activity calls are given as the source filed them. The calls are words filed in the database; no cut-off is given here.

Test [1] relates to Mycobacterium leprae. Briefly: Inhibition of Mycobacterium leprae wild type DNA gyrase A2B2 assessed as DNA supercoiling inhibition.
Test [2] deals with Mycobacterium leprae. Kind of test: Inhibition of Mycobacterium leprae DNA gyrase subunit A G89C mutant assessed as DNA supercoiling inhibition.
Test [3] deals with Mycobacterium leprae. Briefly: Inhibition of Mycobacterium leprae DNA gyrase subunit A A91V mutant assessed as DNA supercoiling inhibition.
Test [4] deals with Mycobacterium leprae. Kind of test: Inhibition of Mycobacterium […] B D205N mutant assessed as DNA supercoiling inhibition.
The subject of test [5] is Mycobacterium leprae. Kind of test: Inhibition of Mycobacterium leprae wild type DNA gyrase A2B2 assessed as formation of DNA cleavable complex.
Test [6] concerns Mycobacterium leprae. Kind of test: (§1) Inhibition of Mycobacterium […] A A91V mutant assessed as formation of DNA cleavable complex.
In test [7] the test system is Mycobacterium leprae. Briefly: Selectivity index, ratio of CC25 for Mycobacterium leprae DNA gyrase subunit A A91V mutant to CC25 for Mycobacterium leprae wild type DNA gyrase A2B2 by DNA cleavage assay.
Test [8] concerns Mycobacterium leprae. Briefly: Selectivity index, ratio of IC50 for Mycobacterium leprae DNA gyrase subunit A A91V mutant to IC50 for Mycobacterium leprae wild type DNA gyrase A2B2.
Test [9] deals with Mycobacterium leprae. Briefly: Selectivity index, ratio of IC50 for Mycobacterium leprae DNA gyrase subunit A G89C mutant to IC50 for Mycobacterium leprae wild type DNA gyrase A2B2.
For test [10], the system named is Mycobacterium leprae [A91V]. Described as §1.
The test system of test [11] is Mycobacterium leprae. Briefly: Inhibition of Mycobacterium […] B D205N mutant assessed as formation of DNA cleavable complex.

Take `C[C@H]1NCc2cc(-c3ccc4c(=O)c(C(=O)O)cn(C5CC5)c4c3OC(F)F)ccc21` [GARENOXACIN]: the IC50 (usually the concentration at which inhibition is half-maximal) was 6 µg/mL (≈ 14.1 µM) in the test on Mycobacterium leprae [1], 5 µg/mL (≈ 11.7 µM) with Mycobacterium leprae [2], 8 µg/mL (≈ 18.8 µM) in the test on Mycobacterium leprae [3] and 16 µg/mL (≈ 37.5 µM) in the test with Mycobacterium leprae [4]. Moreover, the CC25 stood at 1 µg/mL (≈ 2.35 µM) with Mycobacterium leprae [5] and 17 µg/mL (≈ 39.9 µM) with Mycobacterium leprae [6]. Besides, the fold change (FC) in the test on Mycobacterium leprae [7] was 17.
In the case of `COc1c(N2CCNC(C)C2)c(F)cc2c(=O)c(C(=O)O)cn(C3CC3)c12` (stereo unspecified) [GATIFLOXACIN], the IC50 was 3.5 µg/mL (≈ 9.32 µM) with Mycobacterium leprae [1], 20 µg/mL (≈ 53.3 µM) with Mycobacterium leprae [2], 20 µg/mL (≈ 53.3 µM) with Mycobacterium leprae [3] and 4.5 µg/mL (≈ 12 µM) in the test with Mycobacterium leprae [4]. For the same molecule, the values for the CC25 in the test with Mycobacterium leprae [5] and in the test with Mycobacterium leprae [6] were 0.3 µg/mL (≈ 0.799 µM) and 4 µg/mL (≈ 10.7 µM), respectively. Also, the “fold change (FC)” value in the test with Mycobacterium leprae [8] is given as 5; in the test on Mycobacterium leprae [7], 12.
As for `COc1c(N2C[C@@H]3CCCN[C@@H]3C2)c(F)cc2c(=O)c(C(=O)O)cn(C3CC3)c12` [MOXIFLOXACIN], the IC50 turned out to be 6 µg/mL (≈ 14.9 µM) in the test on Mycobacterium leprae [1], 30 µg/mL (≈ 74.7 µM) in the test with Mycobacterium leprae [2] and 25 µg/mL (≈ 62.3 µM) with Mycobacterium leprae [3]. Moreover, the results for the “fold change (FC)” value with Mycobacterium leprae [9] and with Mycobacterium leprae [8] were 3 and 5, respectively.
As to `CCn1cc(C(=O)O)c(=O)c2ccc(C)nc21` [NALIDIXIC ACID], the results for the IC50 in the test with Mycobacterium leprae [2], in the test on Mycobacterium leprae [3] and in the test with Mycobacterium leprae [4] were 150 µg/mL (≈ 646 µM), 170 µg/mL (≈ 732 µM) and 600 µg/mL (≈ 2580 µM), respectively. Also, the CC25 result (with Mycobacterium leprae [5]; in test [10]; in the test with Mycobacterium leprae [11]) was “inactive” in each case.
With `CO[C@@H]1[C@@H](OC(N)=O)[C@@H](O)[C@H](Oc2ccc3c(O)c(NC(=O)c4ccc(O)c(CC=C(C)C)c4)c(=O)oc3c2C)OC1(C)C` [NOVOBIOCIN], the IC50 with Mycobacterium leprae [1] was 0.25 µg/mL (≈ 0.408 µM); in the test on Mycobacterium leprae [2], 0.3 µg/mL (≈ 0.49 µM); with Mycobacterium leprae [3], 0.2 µg/mL (≈ 0.326 µM); in the test on Mycobacterium leprae [4], 0.3 µg/mL (≈ 0.49 µM).
Turning to `CC1COc2c(N3CCN(C)CC3)c(F)cc3c(=O)c(C(=O)O)cn1c23` (stereo unspecified) [OFLOXACIN], the IC50 in the test on Mycobacterium leprae [1] turned out to be 15 µg/mL (≈ 41.5 µM); with Mycobacterium leprae [2], 160 µg/mL (≈ 443 µM); in the test with Mycobacterium leprae [3], 80 µg/mL (≈ 221 µM); with Mycobacterium leprae [4], 20 µg/mL (≈ 55.3 µM). Moreover, the CC25 was 9 µg/mL (≈ 24.9 µM) in the test with Mycobacterium leprae [5], 110 µg/mL (≈ 304 µM) with Mycobacterium leprae [6] and 8 µg/mL (≈ 22.1 µM) with Mycobacterium leprae [11]. In addition, the “fold change (FC)” value in the test on Mycobacterium leprae [8] was found to be 5; in the test on Mycobacterium leprae [7], 12.
Consider `CCn1cc(C(=O)O)c(=O)c2cc3c(cc21)OCO3` [OXOLINIC ACID], for which the IC50 turned out to be 400 µg/mL (≈ 1530 µM) in the test on Mycobacterium leprae [1], 180 µg/mL (≈ 689 µM) in the test on Mycobacterium leprae [2], 200 µg/mL (≈ 766 µM) in the test on Mycobacterium leprae [3] and 700 µg/mL (≈ 2680 µM) in the test with Mycobacterium leprae [4]. Besides, the CC25 entry (with Mycobacterium leprae [5]; in [10]; in the test with Mycobacterium leprae [11]) was “inactive” in each case.
